Here are results for eight molecules from US9795139B2, “Molecules having pesticidal utility, and intermediates, compositions, and processes, related thereto” (priority 2015, dated 2017).

Common to all, as to format: in vivo
For data set [1], the system named is Yellow Fever Mosquito (Aedes aegypti, AEDSAE). The conditions noted are these: about 1 day-old larvae, 96-well plate from 4000 ppm DMSO master, 3 days at room temperature. The essentials:
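Compound stocks at 4000 ppm in DMSO were diluted with 90:10 water/acetone, and 15 μL aliquots were dispensed into six replicate plates. About 1-day-old larvae in liver-powder water were added per well. Plates were covered and held at room temperature for 3 days before each well was scored for mortality.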

Data set [2] deals with Cabbage Looper (Trichoplusia ni, TRIPNI). The experiment in a line: Bioassay on Cabbage Looper (CL), 128-well diet tray assay. As to conditions: 168 h, 50 μg/cm^2 on artificial diet, second instar larvae, 25° C., five to seven days, average of eight wells, read-out: CL % Control (or Mortality) rating. The essentials:
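Percent mortality, averaged across eight replicate wells, was scored after five to seven days at 25° C. under a 14:10 light-dark cycle. Each well held one to five second instar larvae on artificial diet treated at 50 μg/cm^2 with compound from 90:10 acetone-water, allowed to dry before infestation.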

In data set [3] the test system is Beet Armyworm (Spodoptera exigua, LAPHEG). The experiment in a line: Bioassay on Beet Armyworm (BAW), 128-well diet tray assay. The conditions noted are these: 168 h, 50 μg/cm^2 on artificial diet, second instar larvae, 25° C., five to seven days, average of eight wells, read-out: BAW % Control (or Mortality) rating. The essentials:
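Second instar larvae were exposed to diet treated at 50 μg/cm^2 for five to seven days at 25° C.; mortality was averaged over eight wells.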

The mortality is the percentage killed. As to `O=C(NN1CCOC1=O)c1cc(NC(=O)C2C(c3cc(Cl)cc(Cl)c3)C2(Cl)Cl)ccc1Cl` (stereo not drawn) [PF34, trans-2-Chloro-5-(2,2-dichloro-3-(3,5-dichlorophenyl)cyclopropanecarbox-amido)-N-(2-oxooxazolidin-3-yl)benzamide], the “YFM % Control (or Mortality) rating” value in data set [1] is on record as “A (80-100)”. Besides, the mortality at 50 µg/cm2 in data set [2] and in data set [3] was 50 to 100% throughout.
In the case of `O=C(NC1CCSC1=O)c1cc(NC(=O)C2C(c3cc(Cl)cc(Cl)c3)C2(Cl)Cl)ccc1Cl` (stereo not drawn) [PF36, trans-2-Chloro-5-(2,2-dichloro-3-(3,5-dichlorophenyl)cyclopropane-1-carbox-amido)-N-(2-oxotetrahydrothiophen-3-yl)benzamide], in data set [1], the “YFM % Control (or Mortality) rating” value is recorded as “A (80-100)”. The mortality at 50 µg/cm2 in data set [2] and in data set [3] was 50 to 100% throughout.
With `O=C(NC1CCOC1=O)c1cc(NC(=O)C2C(c3cc(Cl)cc(Cl)c3)C2(Cl)Cl)ccc1Cl` (stereo not drawn) [PF37, trans-2-Chloro-5-(2,2-dichloro-3-(3,5-dichlorophenyl)cyclopropane-1-carbox-amido)-N-(2-oxotetrahydrofuran-3-yl)benzamide], the “YFM % Control (or Mortality) rating” value in data set [1] is given as “A (80-100)”. For the same molecule, the mortality at 50 µg/cm2 in data set [2] and in data set [3] was 50 to 100% in each case.
As to `O=C(NN1CC(CN2CCOCC2)OC1=O)c1cc(NC(=O)C2C(c3cc(Cl)cc(Cl)c3)C2(Cl)Cl)ccc1Cl` (stereo not drawn) [PF41, trans-2-Chloro-5-(2,2-dichloro-3-(3,5-dichlorophenyl)cyclopropane-1-carbox-amido)-N-(5-(morpholinomethyl)-2-oxooxazolidin-3-yl)benzamide], in data set [1], the “YFM % Control (or Mortality) rating” value is on record as “A (80-100)”. In addition, the results for the mortality at 50 µg/cm2 in data set [2] and in data set [3] were 50 to 100% and 0 to 50%, respectively.
The matching figures for `O=C(NC1(C(=O)NCC(F)(F)F)CC1)c1cc(NC(=O)C2C(c3cc(Cl)cc(Cl)c3)C2(Cl)Cl)ccc1Cl` (stereo not drawn) [PF42, trans-2-Chloro-5-(2,2-dichloro-3-(3,5-dichlorophenyl)cyclopropane-1-carbox-amido)-N-(1-((2,2,2-trifluoroethyl)carbamoyl)cyclopropyl)benzamide]: “A (80-100)”, 50 to 100% and 50 to 100%.
In the case of `CCNC(=O)C1(NC(=O)c2cc(NC(=O)C3C(c4cc(Cl)cc(Cl)c4)C3(Cl)Cl)ccc2Cl)CC1` (stereo not drawn) [PF43, trans-2-Chloro-5-(2,2-dichloro-3-(3,5-dichlorophenyl)cyclopropane-1-carbox-amido)-N-(1-(ethylcarbamoyl)cyclopropyl)benzamide], the “YFM % Control (or Mortality) rating” value in data set [1] is recorded as “A (80-100)”. For the same molecule, the mortality at 50 µg/cm2 in data set [2] and in data set [3] was 50 to 100% in each case.
As to `O=C(NN1CCN(CC(F)(F)F)C1=O)c1cc(NC(=O)C2C(c3cc(Cl)cc(Cl)c3)C2(Cl)Cl)ccc1Cl` (stereo not drawn) [PF44, trans-2-Chloro-5-(2,2-dichloro-3-(3,5-dichlorophenyl)cyclopropane-1-carbox-amido)-N-(2-oxo-3-(2,2,2-trifluoroethyl)imidazolidin-1-yl)benzamide], the “YFM % Control (or Mortality) rating” value in data set [1] was “A (80-100)”. Also, the mortality at 50 µg/cm2 in data set [2] and in data set [3] was 50 to 100% in each case.
For `CCN1OC[C@@H](NC(=O)c2cc(NC(=O)C3C(c4cc(Cl)cc(Cl)c4)C3(Cl)Cl)ccc2Cl)C1=O` (stereo partly drawn) [PF45, trans-2-Chloro-5-(2,2-dichloro-3-(3,5-dichlorophenyl)cyclopropane-1-carbox-amido)-N—((R)-2-ethyl-3-oxoisoxazolidin-4-yl)benzamide], the “YFM % Control (or Mortality) rating” value in data set [1] was “A (80-100)”. For the same molecule, the mortality at 50 µg/cm2 in data set [2] and in data set [3] was 50 to 100% each time.
